Laboratory results as given in patent US9566269B2, “Modified release compositions of epalrestat or a derivative thereof and methods for using the same” (Bionevia Pharmaceuticals Inc., priority 2011, dated 2017).

Key:
[1] = Ionization study in different pH environments (calculated from pKa); format: physicochemical
Description: The percentage ionization of Epalrestat in different pH environments of the human gastrointestinal tract was calculated based on the pKa value (3.61).

[2] = cited from earlier work
[3] = cited from earlier work; remark: listed apart in the source
[4] = immediate release 50 mg dosage, healthy adult volunteers

C/C(C=C1SC(=S)N(CC(=O)O)C1=O)=C\c1ccccc1 (single isomer, unassigned) [epalrestat, 5-[(1Z,2E)-2-methyl-3-phenylpropenylidene]-4-oxo-2-thioxo-3-thiazolidineacetic acid]
% Ionized ([1]; pH 1.2): 0%
% Ionized ([1]; pH 3.0): 20.0%
% Ionized ([1]; pH 3.5): 44.0%
% Ionized ([1]; pH 4.0): 71.0%
% Ionized ([1]; pH 4.5): 89.0%
% Ionized ([1]; pH 5.0): 96.0%
% Ionized ([1]; pH 5.5): 99.0%
% Ionized ([1]; pH 6.0): 100.0%
% Ionized ([1]; pH 6.8): 100.0%
pKa value [2]: 3.61
Plasma level ([3]; 4 hours after administration of 50 mg tablets of epalrestat free acid): 370 ng/mL
Cmax [3, 4]: 3900 ng/mL
t1/2 [3, 4]: 1.8 h
tmax [3, 4]: 1.05 h
total AUC0-∞ [3, 4]: 6400 ng·h/mL
